According to US11999728B2, “Estrogen receptor modulators” (Recurium IP Holdings, LLC, priority 2020, dated 2024):

Legend:
[1] = tested on: MCF7; experiment: Breast Cancer Cell Proliferation Assay (MCF-7), Cell Titer-Glo; type: cell-based; conditions: Homo sapiens, MCF7 cells, 5 days of compound exposure
Method: Breast Cancer Cell Proliferation Assay (MCF-7)
MCF7 was expanded and maintained in the medium (Phenol red free DMEM/F12 (Hyclone SH30272.01) NEAA (Gibco11140-050) Na-pyruvate (Gibco 11360-070) and Re-stripped Charcoal stripped FBS (Gemini 100-119)). The cells were adjusted to a concentration of 3,000 cells per mL in the above media, and the cells were incubated (37° C., 5% CO2). The following day a 10-point, serial dilution of compounds was added to the cells at a final concentration ranging from 10-0.000005 μM for test compounds (17β-estradiol was used as a control). Additional cells were plated in 30 wells to serve as the day 1 (pretreatment) comparison. After 5 days of compound exposure, Cell Titer-Glo reagent was added to the cells and the relative luminescence units (RLUs) of each well was determined. Cell Titer-Glo was also added to 32 μL of medium without cells to obtain a background value. The plates were allowed to incubate at room temperature for 10 minutes to stabilize luminescent signal and the luminescence signal was recorded with EnSpire. The relative increase in cell number of each sample is determined as follows: (RLU sample-RLU background/RLU estrogen only treated cells-RLU background)×100=% inhibition.

[2] = Pharmacokinetic Determination (Mouse PK); type: in vivo, female CD-1 mice; conditions: female; for AUC(0-t) / clearance / half-life / Vd / bioavailability / Cmax / Tmax: CD-1, plasma; for Vd: read-out: Vdss; for bioavailability: PO 10.0 mg/kg vs IV 3.0 mg/kg; for Kp at 2 h: CD-1, PO 10.0 mg/kg, Brain concentration vs plasma concentration at 2 hours post dosing, read-out: B/P ratio
Method: Pharmacokinetic Determination
Grouping female CD-1 mice weighing 20-30 g randomly to three groups; one group was administered with test compound at a dose of 3.0 mg/kg by intravenous injection, the other two groups were administered with test compound at a dose of 10.0 mg/kg by oral. The formulation for IV groups is DMSO/PEG400/30% HP-β-CD (5/20/75) and the formulation for PO groups is 25% HP-β-CD in 25 mM citrate buffer (pH3.0). After administering, blood samples of intravenous injection group were collected at time points of predose, 0.0833, 0.25, 0.5, 1, 2, 4, 8, 12 and 24 h; blood samples of oral group were collected at time points of predose, 0.25, 0.5, 1, 2, 4, 8, 12, and 24 h. Both blood samples and brain samples were collected at 2 hours post dosing for the second PO group. Standard curve was plotted based on concentrations of the samples in a suitable range, the concentrations of test compounds in plasma samples and brain samples were determined by using LC-MS/MS. Pharmacokinetic parameters were calculated according to drug concentration-time curve using a noncompartmental method by WinNonLin (Phoenix™, version 6.1) or other similar software.

| IC50 ([1]; MCF7, 120 h) | AUC(0-t) ([2]; IV, 3.0 mg/kg) | clearance ([2]; IV, 3.0 mg/kg) | half-life ([2]; IV, 3.0 mg/kg) | Vd ([2]; IV, 3.0 mg/kg) | bioavailability [2] | AUC(0-t) ([2]; PO, 10.0 mg/kg) | Cmax ([2]; PO, 10.0 mg/kg) | Tmax ([2]; PO, 10.0 mg/kg) | half-life ([2]; PO, 10.0 mg/kg) | Kp at 2 h [2] | SMILES | IC50 ([1]; 120 h) |
| --- | --- | --- | --- | --- | --- | --- | --- | --- | --- | --- | --- | --- |
| 25 to 250 nM | 2.93 µM·h | 30.2 mL/min/kg | 546 min | 16.7 L/kg | 49.5% | 4.84 µM·h | 610 nM | 1 h | 564 min | 7.07 | C[C@@H]1Cc2c([nH]c3ccccc23)[C@@H](c2c(F)cc(O[C@@H]3CCN(CCCF)C3)cc2F)N1C12CC(C1)C2 (single isomer, unassigned) [Compound 5] | – |
| ≤ 25 nM | 2.93 µM·h | 30.2 mL/min/kg | 546 min | 16.7 L/kg | 49.5% | 4.84 µM·h | 611 nM | 1 h | 564 min | 4.42 | C[C@@H]1Cc2c([nH]c3ccccc23)[C@@H](c2c(F)cc(O[C@H]3CCN(CCCF)C3)cc2F)N1C12CC(C1)C2 (single isomer, unassigned) [Compound 6] | – |
| ≤ 25 nM | 1.03 µM·h | 101 mL/min/kg | 131 min | 12.8 L/kg | 15.3% | 0.527 µM·h | 178 nM | 0.5 h | 127 min | 7.51 | C[C@@H]1Cc2c([nH]c3ccccc23)[C@@H](c2ccc(O[C@H]3CCN(CCCF)C3)nc2)N1C12CC(C1)C2 (single isomer, unassigned) [Compound 10] | – |
| > 250 nM | 0.59 µM·h | – | – | – | 5.03% | 0.1 µM·h | 60 nM | 0.25 h | 60.6 min | – | C[C@@H]1Cc2c([nH]c3ccccc23)[C@@H](c2ccc(NC3CN(CCCF)C3)nc2)N1C12CC(C1)C2 [Compound 21, 5-((1R,3R)-2-(bicyclo[1.1.1]pentan-1-yl)-3-methyl-2,3,4,9-tetrahydro-1H-pyrido[3,4-b]indol-1-yl)-N-(1-(3-fluoropropyl)azetidin-3-yl)pyridin-2-amine] | – |
| ≤ 25 nM | – | – | – | – | – | – | – | – | – | – | C[C@@H]1Cc2c([nH]c3ccccc23)[C@@H](c2ccc(N[C@H]3CCN(CCCF)C3)nc2)N1C12CC(C1)C2 [Compound 20, 5-((1R,3R)-2-(bicyclo[1.1.1]pentan-1-yl)-3-methyl-2,3,4,9-tetrahydro-1H-pyrido[3,4-b]indol-1-yl)-N—((S)-1-(3-fluoropropyl)pyrrolidin-3-yl)pyridin-2-amine] | – |
| ≤ 25 nM | – | – | – | – | – | – | – | – | – | – | C[C@@H]1Cc2c([nH]c3ccccc23)[C@@H](c2ccc(OCCN3CC(CF)C3)cc2)N1C12CC(C1)C2 [Compound 24, (1R,3R)-2-(bicyclo[1.1.1]pentan-1-yl)-1-(4-(2-(3-(fluoromethyl)azetidin-1-yl)ethoxy)phenyl)-3-methyl-2,3,4,9-tetrahydro-1H-pyrido[3,4-b]indole] | – |

Second part, the compound before the results:

| SMILES | IC50 ([1]; MCF7, 120 h) | AUC(0-t) ([2]; IV, 3.0 mg/kg) | clearance ([2]; IV, 3.0 mg/kg) | half-life ([2]; IV, 3.0 mg/kg) | Vd ([2]; IV, 3.0 mg/kg) | bioavailability [2] | AUC(0-t) ([2]; PO, 10.0 mg/kg) | Cmax ([2]; PO, 10.0 mg/kg) | Tmax ([2]; PO, 10.0 mg/kg) | half-life ([2]; PO, 10.0 mg/kg) | Kp at 2 h [2] | IC50 ([1]; 120 h) |
| --- | --- | --- | --- | --- | --- | --- | --- | --- | --- | --- | --- | --- |
| C[C@@H]1Cc2c([nH]c3ccccc23)[C@@H](c2c(F)cc(N[C@H]3CCN(CCCF)C3)cc2F)N1C12CC(CO)(C1)C2 (single isomer, unassigned) [Compound 70] | ≤ 25 nM | 2.46 µM·h | 36.1 mL/min/kg | 391 min | 12.2 L/kg | 21.4% | 2.09 µM·h | 210 nM | 2 h | 315 min | – | – |
| C[C@@H]1Cc2c([nH]c3ccccc23)[C@@H](c2c(F)cc(NC3CN(CCCF)C3)cc2F)N1C12CC(C1)C2 [Compound 1, N-(4-((1R,3R)-2-(bicyclo[1.1.1]pentan-1-yl)-3-methyl-2,3,4,9-tetrahydro-1H-pyrido[3,4-b]indol-1-yl)-3,5-difluorophenyl)-1-(3-fluoropropyl)azetidin-3-amine] | – | 2.79 µM·h | 24.2 mL/min/kg | 1080 min | 31.9 L/kg | 52.4% | 4.88 µM·h | 466 nM | 2 h | 630 min | 11 | ≤ 25 nM |
| C[C@@H]1Cc2c([nH]c3ccccc23)[C@@H](c2ccc(NC3CN(CCCF)C3)cn2)N1C12CC(C1)C2 [Compound 2, 6-((1S,3R)-2-(bicyclo[1.1.1]pentan-1-yl)-3-methyl-2,3,4,9-tetrahydro-1H-pyrido[3,4-b]indol-1-yl)-N-(1-(3-fluoropropyl)azetidin-3-yl)pyridin-3-amine] | – | 1.74 µM·h | 55.8 mL/min/kg | 527 min | 31.9 L/kg | 43.3% | 2.51 µM·h | 358 nM | 1 h | 434 min | 2.87 | ≤ 25 nM |
| C[C@@H]1Cc2c(ccc3[nH]ncc23)[C@@H](c2ccc(NC3CN(CCCF)C3)cn2)N1CC(F)(F)F [AZD9833, reference compound] | ≤ 25 nM | – | – | – | – | – | 4.19 µM·h | 649 nM | 2 h | 140 min | 0.23 | – |
| C[C@@H]1Cc2c([nH]c3ccccc23)[C@@H](c2cnc(NC3CN(CCCF)C3)cn2)N1C12CC(C1)C2 [Compound 16, 5-((1S,3R)-2-(bicyclo[1.1.1]pentan-1-yl)-3-methyl-2,3,4,9-tetrahydro-1H-pyrido[3,4-b]indol-1-yl)-N-(1-(3-fluoropropyl)azetidin-3-yl)pyrazin-2-amine] | ≤ 25 nM | 2.08 µM·h | 53.5 mL/min/kg | 231 min | 11.8 L/kg | 39.5% | 2.73 µM·h | 590 nM | 1 h | 194 min | – | – |
| CCCN1CC[C@H](Nc2ccc([C@@H]3c4[nH]c5ccccc5c4C[C@@H](C)N3C34CC(C3)C4)cc2)C1 [Compound 72, (S)—N-(4-((1R,3R)-2-(bicyclo[1.1.1]pentan-1-yl)-3-methyl-2,3,4,9-tetrahydro-1H-pyrido[3,4-b]indol-1-yl)phenyl)-1-propylpyrrolidin-3-amine] | ≤ 25 nM | 2.17 µM·h | – | – | – | 51.5% | 3.73 µM·h | 240 nM | 4 h | – | 8.82 | – |
| C[C@@H]1Cc2c([nH]c3ccccc23)[C@@H](c2ccc(NC3CN(CCCF)C3)cc2F)N1C12CC(C1)C2 [Compound 15, N-(4-((1R,3R)-2-(bicyclo[1.1.1]pentan-1-yl)-3-methyl-2,3,4,9-tetrahydro-1H-pyrido[3,4-b]indol-1-yl)-3-fluorophenyl)-1-(3-fluoropropyl)azetidin-3-amine] | ≤ 25 nM | 0.892 µM·h | 100 mL/min/kg | 600 min | 66.4 L/kg | 47.3% | 1.45 µM·h | 200 nM | 1 h | 552 min | 10.8 | – |
| C[C@@H]1Cc2c([nH]c3ccccc23)[C@@H](c2c(F)cc(N[C@H]3CCN(CCCF)C3)cc2F)N1C12CC(C1)C2 [Compound 19, (S)—N-(4-((1R,3R)-2-(bicyclo[1.1.1]pentan-1-yl)-3-methyl-2,3,4,9-tetrahydro-1H-pyrido[3,4-b]indol-1-yl)-3,5-difluorophenyl)-1-(3-fluoropropyl)pyrrolidin-3-amine] | ≤ 25 nM | 2.15 µM·h | 47.6 mL/min/kg | 395 min | 23.2 L/kg | 69.8% | 5 µM·h | 440 nM | 1 h | 510 min | 12.3 | – |
| C[C@@H]1Cc2c([nH]c3ccccc23)[C@@H](c2c(F)cc(OCCN3CCCC3)cc2F)N1C12CC(C1)C2 [Compound 26, (1R,3R)-2-(bicyclo[1.1.1]pentan-1-yl)-1-(2,6-difluoro-4-(2-(pyrrolidin-1-yl)ethoxy)phenyl)-3-methyl-2,3,4,9-tetrahydro-1H-pyrido[3,4-b]indole] | ≥ 250 nM | – | – | – | – | – | – | – | – | – | – | – |
| CCCNCC1CCN(c2ccc([C@@H]3c4[nH]c5ccccc5c4C[C@@H](C)N3C34CC(C3)C4)cc2)CC1 [Compound 93, N-((1-(4-((1R,3R)-2-(bicyclo[1.1.1]pentan-1-yl)-3-methyl-2,3,4,9-tetrahydro-1H-pyrido[3,4-b]indol-1-yl)phenyl)piperidin-4-yl)methyl)propan-1-amine] | ≤ 25 nM | – | – | – | – | – | – | – | – | – | – | – |
